Experimental data reported in ChEMBL document CHEMBL1201862, “PubChem BioAssay data set” (2004).
Blank lines part the entries; values can stand above or below the compound they belong to. Active and inactive are the calls of the source.

Legend:
[1] = target: T1, E3 ubiquitin-protein ligase XIAP (Homo sapiens, UniProt P98170); assay: small molecules displacing peptide from XIAP – biochemical, IAP family, fluorescence polarization (AID 1018); assay type: functional
[2] = target: T1, E3 ubiquitin-protein ligase XIAP; assay: Counter Screen using XIAP-Bir3 for Chemical Antagonists of Bir1/2 domains of IAP-family anti-apoptotic proteins. [Related pubchem assays (depositor defined):AID1018, AID1449, AID1514, AID1638, AID1749, AID1750, AID488957, AID488963]
[3] = target: T2, Alkaline phosphatase, tissue-nonspecific isozyme (Homo sapiens, UniProt P05186); assay: potency against alkaline phosphatase TNAP – biochemical, luminescent, dose response, SAR follow-up (AID 1056)
T2 sequence (P05186 whole entry): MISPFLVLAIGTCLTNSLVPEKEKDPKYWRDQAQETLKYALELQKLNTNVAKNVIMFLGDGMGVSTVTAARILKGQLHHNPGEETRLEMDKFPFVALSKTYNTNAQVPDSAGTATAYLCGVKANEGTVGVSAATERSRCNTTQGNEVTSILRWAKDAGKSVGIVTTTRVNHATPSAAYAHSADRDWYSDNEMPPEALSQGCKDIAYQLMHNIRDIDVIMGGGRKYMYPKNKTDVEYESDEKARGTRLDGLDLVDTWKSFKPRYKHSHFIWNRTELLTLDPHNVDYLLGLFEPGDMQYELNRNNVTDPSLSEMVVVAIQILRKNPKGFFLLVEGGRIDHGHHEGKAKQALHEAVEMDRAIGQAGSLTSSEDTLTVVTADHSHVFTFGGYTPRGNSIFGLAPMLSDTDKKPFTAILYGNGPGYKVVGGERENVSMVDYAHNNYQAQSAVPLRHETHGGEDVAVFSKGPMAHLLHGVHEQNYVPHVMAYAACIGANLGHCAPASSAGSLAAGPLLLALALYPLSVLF

Large T antigen = Large T antigen (Simian virus 40, UniProt P03070); assay type: functional, Betapolyomavirus macacae;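 note: Confirmatory-stage PubChem screen for compounds that inhibit SV40 T antigen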
[4] = target: Alkaline phosphatase, placental type (Homo sapiens, UniProt P05187); assay: human placental alkaline phosphatase inhibition – biochemical, luminescence, confirmation (AID 1512); assay type: functional
[5] = target: T3, Tyrosine-protein phosphatase non-receptor type 22 (Homo sapiens, UniProt Q9Y2R2); assay type: functional
T3 sequence (Q9Y2R2 whole entry): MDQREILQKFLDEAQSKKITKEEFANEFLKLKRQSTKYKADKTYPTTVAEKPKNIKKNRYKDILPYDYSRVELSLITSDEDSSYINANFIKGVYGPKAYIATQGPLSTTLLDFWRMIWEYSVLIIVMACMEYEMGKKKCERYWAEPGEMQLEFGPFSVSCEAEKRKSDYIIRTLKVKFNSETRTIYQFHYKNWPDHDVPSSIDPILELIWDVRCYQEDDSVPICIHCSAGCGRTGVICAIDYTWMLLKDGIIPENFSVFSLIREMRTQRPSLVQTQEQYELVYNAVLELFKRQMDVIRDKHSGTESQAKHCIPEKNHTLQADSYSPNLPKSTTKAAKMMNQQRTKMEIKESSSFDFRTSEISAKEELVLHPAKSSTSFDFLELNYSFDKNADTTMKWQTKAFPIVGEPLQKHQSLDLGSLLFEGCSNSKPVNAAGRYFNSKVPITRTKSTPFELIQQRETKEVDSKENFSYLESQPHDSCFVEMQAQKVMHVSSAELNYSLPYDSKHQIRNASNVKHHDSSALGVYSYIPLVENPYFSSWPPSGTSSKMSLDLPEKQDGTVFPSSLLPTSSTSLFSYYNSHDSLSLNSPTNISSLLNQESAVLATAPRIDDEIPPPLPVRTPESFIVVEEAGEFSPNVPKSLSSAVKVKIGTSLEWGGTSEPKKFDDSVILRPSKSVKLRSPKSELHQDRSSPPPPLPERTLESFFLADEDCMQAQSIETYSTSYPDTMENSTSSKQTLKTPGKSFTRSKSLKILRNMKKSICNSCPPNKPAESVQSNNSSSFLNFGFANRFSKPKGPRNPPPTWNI

[6] = target: T3, Tyrosine-protein phosphatase non-receptor type 22; assay type: functional; remark: listed apart in the source
[7] = target: T4, Tyrosine-protein phosphatase non-receptor type 7 (Homo sapiens, UniProt P35236); assay type: functional
T4 sequence (P35236 whole entry): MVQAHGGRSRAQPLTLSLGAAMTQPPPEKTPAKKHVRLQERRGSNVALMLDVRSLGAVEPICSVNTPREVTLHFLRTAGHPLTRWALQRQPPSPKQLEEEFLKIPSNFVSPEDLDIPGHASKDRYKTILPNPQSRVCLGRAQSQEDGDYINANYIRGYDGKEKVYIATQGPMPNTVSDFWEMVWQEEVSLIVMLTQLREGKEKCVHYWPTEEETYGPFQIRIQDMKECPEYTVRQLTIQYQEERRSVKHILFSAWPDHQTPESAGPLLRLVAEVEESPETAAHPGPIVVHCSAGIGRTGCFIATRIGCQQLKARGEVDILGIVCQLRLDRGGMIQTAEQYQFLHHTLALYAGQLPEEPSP

[8] = loss of viability in HepG2 cells – cell-based, CellTiter-Glo, cherry-picked, cytotoxicity control for Shn3 inhibitor project, dose response (AID 624134); assay type: functional
INS1 = assay: INS-1E survival protection against cytokine death – cell-based, luminescence, retest, dose response (AID 449756); assay type: functional; conditions: Rattus norvegicus;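 note: cell death triggered by IL-1 beta plus TNF-alpha plus IFN-gamma mixture; protective hits raise ATP signal compared with cytokine alone wells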
[9] = Trypanosoma cruzi growth suppression in host cells – NIH3T3 host cells, beta-gal luminescence, confirmation (AID 2044); assay type: functional, cell-based;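 note: intracellular parasites grown in NIH/3T3 mouse fibroblasts as host cells; luminescent beta-galactosidase reporter signal from transgenic T. cruzi replicating inside host cells; inhibitors lower the luminescence signal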
[10] = reduction of Shn3 3'UTR-driven luciferase in osteoblasts – cell-based, Clone20 osteoblasts, firefly luciferase, cherry-picked, dose response (AID 624132); assay type: functional;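 note: firefly luciferase luminescence from reporter carrying the Shn3 3'UTR in osteoblasts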
[11] = Luminescence Cell-Based Dose Retest to Confirm Inhibitors of Cancer Stem Cells. [Related pubchem assays (depositor defined):AID2717, AID2721]; assay type: functional; conditions: Homo sapiens
Jurkat = assay: blockers of NF-kB activation in T cells – Jurkat, luciferase reporter, luminescence, B- and T-cell, dose response (AID 489004); assay type: functional, cell-based; conditions: Homo sapiens;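 note: NF-kB luciferase reporter Jurkat cells stimulated with PMA plus ionomycin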
[12] = NIH3T3 cell viability loss – ATP luminescence, mouse fibroblasts, counter-screen, dose response (AID 2010); assay type: functional, cell-based;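 note: cells exposed to compound for about 90 hours before reading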
[13] = non-specific 3'UTR reporter inhibition in Clone20-Shn3RL – cell-based, Renilla luciferase, cherry-picked, counter-screen for Shn3 inhibitor project, dose response (AID 624133); assay type: functional
[14] = HEK-293T viability loss, compound-treated – cell-based, uHTS hits, cytotoxicity control for B/T-cell NF-kB inhibitor project, dose response (AID 489019); assay type: functional;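 note: IC50 reflects cytotoxicity as loss of cell viability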
[15] = Luminescence Cell-Based Dose Confirmation HTS to Identify Inhibitors of Platelet Dense Granule Release. [Related pubchem assays: 1663 (Primary HTS), 1678 (Summary of Project)]; assay type: functional
[16] = target: Luciferin 4-monooxygenase (Photinus pyralis, UniProt P08659); assay: inhibition of purified Photinus pyralis luciferase – biochemical, luminescence, dose response (AID 1891)
Luciferin 4-monooxygenase, sequence (P08659 whole entry): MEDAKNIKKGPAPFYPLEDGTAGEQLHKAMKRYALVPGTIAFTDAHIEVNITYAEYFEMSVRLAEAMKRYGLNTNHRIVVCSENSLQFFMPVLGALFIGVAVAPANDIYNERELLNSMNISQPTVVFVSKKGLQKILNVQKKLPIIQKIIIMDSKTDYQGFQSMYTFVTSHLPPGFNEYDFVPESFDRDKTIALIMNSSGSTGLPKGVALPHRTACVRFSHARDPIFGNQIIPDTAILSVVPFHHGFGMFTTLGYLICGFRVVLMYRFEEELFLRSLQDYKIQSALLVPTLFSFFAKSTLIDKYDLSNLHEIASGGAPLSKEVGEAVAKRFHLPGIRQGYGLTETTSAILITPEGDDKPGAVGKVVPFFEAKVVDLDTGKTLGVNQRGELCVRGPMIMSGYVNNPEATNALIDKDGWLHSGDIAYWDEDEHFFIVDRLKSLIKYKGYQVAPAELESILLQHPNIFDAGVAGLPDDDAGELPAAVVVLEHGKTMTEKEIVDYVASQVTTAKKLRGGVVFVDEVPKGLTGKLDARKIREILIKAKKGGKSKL

T1 sequence (P98170 whole entry): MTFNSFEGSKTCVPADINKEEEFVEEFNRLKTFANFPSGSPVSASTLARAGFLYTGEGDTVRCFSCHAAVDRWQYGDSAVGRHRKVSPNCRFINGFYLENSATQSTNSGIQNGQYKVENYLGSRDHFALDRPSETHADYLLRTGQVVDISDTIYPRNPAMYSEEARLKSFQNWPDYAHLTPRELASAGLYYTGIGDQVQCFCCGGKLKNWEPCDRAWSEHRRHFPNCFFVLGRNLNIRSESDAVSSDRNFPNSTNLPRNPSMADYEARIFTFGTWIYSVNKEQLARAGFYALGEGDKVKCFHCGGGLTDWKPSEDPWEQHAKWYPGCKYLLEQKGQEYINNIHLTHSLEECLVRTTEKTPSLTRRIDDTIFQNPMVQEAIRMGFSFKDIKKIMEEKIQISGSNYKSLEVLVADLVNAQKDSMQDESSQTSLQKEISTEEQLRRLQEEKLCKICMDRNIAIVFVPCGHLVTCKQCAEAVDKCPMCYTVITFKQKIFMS
Large T antigen, sequence (P03070 whole entry): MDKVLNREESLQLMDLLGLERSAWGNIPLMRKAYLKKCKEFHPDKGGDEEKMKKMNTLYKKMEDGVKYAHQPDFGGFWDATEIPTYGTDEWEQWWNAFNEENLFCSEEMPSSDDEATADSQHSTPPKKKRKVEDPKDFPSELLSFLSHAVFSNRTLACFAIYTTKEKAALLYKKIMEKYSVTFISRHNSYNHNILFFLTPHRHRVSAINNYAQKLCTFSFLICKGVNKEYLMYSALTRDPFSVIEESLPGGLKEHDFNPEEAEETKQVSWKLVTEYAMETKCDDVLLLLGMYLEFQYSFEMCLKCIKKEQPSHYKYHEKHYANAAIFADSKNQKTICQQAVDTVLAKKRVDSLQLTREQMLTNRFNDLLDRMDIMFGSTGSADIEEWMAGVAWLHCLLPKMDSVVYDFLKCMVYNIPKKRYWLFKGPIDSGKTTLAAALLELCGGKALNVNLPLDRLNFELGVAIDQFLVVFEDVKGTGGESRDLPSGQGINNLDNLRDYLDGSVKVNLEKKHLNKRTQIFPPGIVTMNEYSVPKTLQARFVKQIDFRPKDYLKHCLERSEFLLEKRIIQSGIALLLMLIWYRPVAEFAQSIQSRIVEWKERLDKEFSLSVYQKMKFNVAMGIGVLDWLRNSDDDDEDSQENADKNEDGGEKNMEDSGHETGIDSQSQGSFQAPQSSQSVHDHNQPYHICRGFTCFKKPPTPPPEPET
Alkaline phosphatase, placental type, sequence (P05187 whole entry): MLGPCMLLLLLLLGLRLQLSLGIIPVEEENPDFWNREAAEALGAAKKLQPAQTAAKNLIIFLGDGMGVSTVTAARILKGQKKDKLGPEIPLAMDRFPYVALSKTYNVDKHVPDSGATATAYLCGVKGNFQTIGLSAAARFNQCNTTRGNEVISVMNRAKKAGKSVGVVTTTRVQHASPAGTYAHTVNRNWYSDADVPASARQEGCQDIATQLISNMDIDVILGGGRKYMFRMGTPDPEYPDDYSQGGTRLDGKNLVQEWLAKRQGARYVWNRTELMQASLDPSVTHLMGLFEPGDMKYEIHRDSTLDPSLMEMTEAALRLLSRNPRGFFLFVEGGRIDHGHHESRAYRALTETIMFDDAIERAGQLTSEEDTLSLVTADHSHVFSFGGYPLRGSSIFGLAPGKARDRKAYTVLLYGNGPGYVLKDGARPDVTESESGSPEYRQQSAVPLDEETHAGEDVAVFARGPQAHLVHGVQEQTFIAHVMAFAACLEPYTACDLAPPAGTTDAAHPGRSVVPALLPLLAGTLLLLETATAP

Compound: Cc1sc2ncnc(N3CCN(CCOc4ccc(Cl)cc4)CC3)c2c1C
- AC50 [8]: 3.27 µM (active)
- AC50 (INS1): 2.74 µM (active)
- EC50 [9]: 2.29 µM (active)
- AC50 [10]: 1.35 µM (active)
- AC50 [11]: 5.5 µM (active)
- IC50 (Jurkat): 64.1 µM (inactive)
- EC50 [12]: > 30 µM (not active)
- AC50 [13]: 6.27 µM (active)
- IC50 [14]: > 80 µM (inactive)

Compound: COC(=O)C(C(=O)NCC1CCCO1)C1CCCCCC1 (configuration not stated)
- EC50 [15]: > 112 µM (not active)
- IC50 [5]: > 79.4 µM (inactive)
- IC50 [6]: > 79.4 µM (inactive)
- IC50 [7]: > 79.4 µM (inactive)
- EC50 [16]: > 112 µM (not active)

Results, then the compound that gave them:

- IC50 [1]: > 100 µM (not active)
- IC50 [2]: > 100 µM (inactive)
Compound: Cc1ccc(C(=O)N/N=C\c2ccccc2[N+](=O)[O-])cn1

- IC50 [3]: > 100 µM (inactive)
- IC50 (Large T antigen): > 100 µM (active)
- IC50 [4]: 4.9 µM (active)
Compound: Cn1c(SCC(=O)c2ccc(O)c(O)c2)nnc1-c1cccs1

- IC50 [5]: > 79.4 µM (inactive)
- IC50 [6]: > 79.4 µM (inactive)
- IC50 [7]: > 79.4 µM (inactive)
Compound: Cc1cc(Cl)ccc1OCC(=O)OCC(=O)Nc1ccc(F)c([N+](=O)[O-])c1
